Measured values from patent US12084472B2 (Ardelyx, Inc., priority 2015, dated 2024).

molecular target: T1, human TGR5 (Homo sapiens, UniProt Q8TDU6); assay: Cell-based TGR5 assay (cAMP generation, HTRF); conditions: HEK293 cells stably transfected with human TGR5; cAMP by HTRF; 30 minutes at 37° C.; read-out: pEC50 Human TGR5 (converted)
T1 construct: expressed in transfected cells; host or cells: HEK293
T1 sequence (Q8TDU6 1-330): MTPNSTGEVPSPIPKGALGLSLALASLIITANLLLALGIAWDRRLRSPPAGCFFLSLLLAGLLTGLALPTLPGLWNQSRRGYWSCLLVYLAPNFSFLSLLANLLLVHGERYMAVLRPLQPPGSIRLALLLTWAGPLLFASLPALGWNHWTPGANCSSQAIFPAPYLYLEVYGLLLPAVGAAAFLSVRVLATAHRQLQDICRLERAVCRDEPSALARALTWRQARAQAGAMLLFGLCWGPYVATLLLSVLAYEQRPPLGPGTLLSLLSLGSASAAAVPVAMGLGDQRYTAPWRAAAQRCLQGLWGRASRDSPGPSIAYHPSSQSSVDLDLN
Method: A primary cell-based assay utilized HEK293 cells stably transfected with a gene encoding human TGR5. Cells were treated with candidate TGR5 activators and assessed for increased intercellular levels of cAMP.
TGR5-mediated cAMP generation was measured using a homogeneous time resolved fluorescence (HTRF) detection method (Cisbio). Test compounds were dissolved in DMSO to a final concentration of 10 mM. Serial 3-fold dilutions of the stock solution were made in DMSO, and these solutions were diluted 100-fold into Hanks Balanced Salt Solution supplemented with 10 mM HEPES pH 7.4, 0.003% Tween 20 and 0.5 mM isobutyl methylxanthine. Five microliters of diluted test compounds were added to wells of a black 384 well plate.
Cells grown overnight at 37° C./5% CO2 were harvested and resuspended in Hanks Balanced Salt Solution containing 10 mM HEPES to a concentration of […]. Five microliters (2500 cells) were dispensed into each well of the 384 well plate containing compound dilutions and incubated at 37° C. for 30 minutes. Each compound was tested in duplicate at 12 concentrations ranging from 0.05 nM to 10 μM.
Following incubation with test compounds, cAMP was detected through the successive addition of 5 μL each of cAMP labeled with the modified allophyocyanin dye d2 (cAMP-d2) and cryptate-labeled anti-cAMP in lysis buffer, and reading HTRF per the manufacturer's instructions.
A standard curve was used to convert the raw HTRF data into [cAMP]. The concentration of cAMP was plotted against log [test compound] and the resulting curves were fit to a 3-parameter logistical equation using GraphPad Prism to determine pEC50 (the negative log of the EC50) and the magnitude of the response.

`CC(CCCN(C)C(=O)[C@@H](O)[C@@H](O)[C@H](O)[C@@H](O)CO)c1ccc(Cl)c(CNC2(c3cnccc3-c3ccccc3OC3CC3)CC2)c1` (stereo partly drawn) [Compound I-258, (2S,3S,4R,5S)-N-(4-[4-chloro-3-[([1-[4-(2-cyclopropoxyphenyl)pyridin-3-yl]cyclopropyl]amino)methyl]phenyl]pentyl)-2,3,4,5,6-pentahydroxy-N-methylhexanamide] and `COCCN(CCCC(C)c1ccc(Cl)c(CNC2(c3cnccc3-c3ccccc3OC3CC3)CC2)c1)C(=O)[C@@H](O)[C@@H](O)[C@H](O)[C@@H](O)CO` (stereo partly drawn) [Compound I-282, (2S,3S,4R,5S)-N-(4-{4-chloro-3-[({1-[4-(2-cyclopropoxyphenyl)pyridin-3-yl]cyclopropyl}amino)methyl]phenyl}pentyl)-2,3,4,5,6-pentahydroxy-N-(2-methoxyethyl)hexanamide] cannot be ordered by EC50: under 100 nM for the first, under 100 nM for the second.

Compared with `O=C(CCS(=O)(=O)c1ccccc1)N(CCCCc1cc(Cl)c(COC2(c3cnccc3-c3ccccc3OC3CC3)CC2)cc1Cl)C[C@H](O)[C@@H](O)[C@H](O)[C@H](O)CO` [Compound I-70, 3-(benzenesulfonyl)-N-{4-[2,5-dichloro-4-({1-[4-(2-cyclopropoxyphenyl)pyridin-3-yl]cyclopropoxy}methyl)phenyl]butyl}-N-[(2S,3R,4R,5R)-2,3,4,5,6-pentahydroxyhexyl]propanamide], `CNC(=O)N(CCCCc1cc(Cl)c(COC2(c3cnccc3-c3ccccc3OC3CC3)CC2)cc1Cl)C[C@H](O)[C@@H](O)[C@H](O)[C@H](O)CO` [Compound I-79] is lower in EC50: 126 to 1000 nM for the first, under 100 nM for the second.

`O=C(NCCOCCNS(=O)(=O)c1ccc(Cl)c(COC2(c3cnccc3-c3ccccc3OC3CC3)CC2)c1)NC[C@H](O)[C@@H](O)[C@H](O)[C@H](O)CO` (stereo in doubt) [Compound I-403, 1-(2-{2-[4-chloro-3-({1-[4-(2-cyclopropoxyphenyl)pyridin-3-yl]cyclopropoxy}methyl)benzenesulfonamido]ethoxy}ethyl)-3-[(2S,3R,4R,5R)-2,3,4,5,6-pentahydroxyhexyl]urea] and `CC(C)N(CCCCNC(=O)NC[C@H](O)[C@@H](O)[C@H](O)[C@H](O)CO)S(=O)(=O)c1ccc(Cl)c(COC2(c3cnccc3-c3ccccc3OC3CC3)CCOC2)c1` (stereo partly drawn) [Compound I-750, 4-chloro-3-(((3-(4-(2-cyclopropoxyphenyl)pyridin-3-yl)tetrahydrofuran-3-yl)oxy)methyl)-N-isopropyl-N-(4-(3-((2S,3R,4R,5R)-2,3,4,5,6-pentahydroxyhexyl)ureido)butyl) benzenesulfonamide] cannot be ordered by EC50: under 100 nM for the first, under 100 nM for the second.

`Clc1ccc(Cl)c(COC2(c3cnccc3-c3ccccc3OC3CC3)CC2)c1` [Compound I-46, 4-(2-cyclopropoxyphenyl)-3-{1-[(2,5-dichlorophenyl)methoxy]cyclopropyl}pyridine] and `COc1ccccc1-c1ccncc1C1(OCc2cc(Cl)ccc2Cl)CC1` [Compound I-45, 3-[1-[(2,5-dichlorophenyl)methoxy]cyclopropyl]-4-(2-methoxyphenyl)pyridine] cannot be ordered by EC50: under 100 nM for the first, under 100 nM for the second.

`CC(CCCC(=O)N(CC(N)=O)C[C@H](O)[C@@H](O)[C@H](O)[C@H](O)CO)c1ccc(Cl)c(CNC2(c3cnccc3-c3ccccc3OC3CC3)CC2)c1` (stereo partly drawn) [Compound I-332, N-(carbamoylmethyl)-5-{4-chloro-3-[({1-[4-(2-cyclopropoxyphenyl)pyridin-3-yl]cyclopropyl}amino)methyl]phenyl}-N-[(2S,3R,4R,5R)-2,3,4,5,6-pentahydroxyhexyl]hexanamide] and `CCCN(C[C@H](O)[C@@H](O)[C@H](O)[C@H](O)CO)C(=O)CCCC(C)c1ccc(C)c(CNC2(c3cnccc3-c3ccccc3OC3CC3)CC2)c1` (stereo partly drawn) [Compound I-354, 5-{3-[({1-[4-(2-cyclopropoxyphenyl)pyridin-3-yl]cyclopropyl}amino)methyl]-4-methylphenyl}-N-[(2S,3R,4R,5R)-2,3,4,5,6-pentahydroxyhexyl]-N-propylhexanamide] cannot be ordered by EC50: under 100 nM for the first, under 100 nM for the second.

First: NC(=O)CN(CCCCCSc1ccc(Cl)c(CNC2(c3cnccc3-c3ccccc3OC3CC3)CC2)c1)C(=O)[C@@H](O)[C@@H](O)[C@H](O)[C@@H](O)CO [Compound I-610, (2S,3S,4R,5S)-N-(carbamoylmethyl)-N-[5-({4-chloro-3-[({1-[4-(2-cyclopropoxyphenyl)pyridin-3-yl]cyclopropyl}amino)methyl]phenyl}sulfanyl)pentyl]-2,3,4,5,6-pentahydroxyhexanamide]
Second: CS(=O)(=O)NCCCN(CCCSc1ccc(Cl)c(COC2(c3cnccc3-c3ccccc3OC3CC3)CC2)c1)C(=O)[C@@H](O)[C@@H](O)[C@H](O)[C@@H](O)CO [Compound I-592, (2S,3S,4R,5S)-N-(3-{[4-chloro-3-({1-[4-(2-cyclopropoxyphenyl)pyridin-3-yl]cyclopropoxy}methyl)phenyl]sulfanyl}propyl)-2,3,4,5,6-pentahydroxy-N-(3-methanesulfonamidopropyl) hexanamide]
The EC50 of the first is lower: under 100 nM for the first, 126 to 1000 nM for the second.

Compared with `Cc1ccc(CCCCC(=O)N(C)C[C@H](O)[C@@H](O)[C@H](O)[C@H](O)CO)cc1CNC1(c2cnccc2-c2ccccc2OC2CC2)CC1` (stereo in doubt) [Compound I-238, 5-{3-[({1-[4-(2-cyclopropoxyphenyl)pyridin-3-yl]cyclopropyl}amino)methyl]-4-methylphenyl}-N-methyl-N-[(2S,3R,4R,5R)-2,3,4,5,6-pentahydroxyhexyl]pentanamide], `Cc1cc(COC2(c3cnccc3-c3ccccc3OC3CC3)CC2)c(Cl)cc1CCCCNC(=O)N(C)C[C@H](O)[C@@H](O)[C@H](O)[C@H](O)CO` [Compound I-167, 1-{4-[5-chloro-4-({1-[4-(2-cyclopropoxyphenyl)pyridin-3-yl]cyclopropoxy}methyl)-2-methylphenyl]butyl}-3-methyl-3-[(2S,3R,4R,5R)-2,3,4,5,6-pentahydroxyhexyl]urea] is lower in EC50: 126 to 1000 nM for the first, under 100 nM for the second.

Compared with `CN(CCCCc1cc(Cl)c(COC2(c3cnccc3-c3ccccc3OC3CC3)CC2)cc1Cl)C(=O)[C@@H](O)[C@@H](O)[C@H](O)[C@@H](O)CO` (stereo in doubt) [Compound I-184, (2S,3S,4R,5S)-N-{4-[2,5-dichloro-4-({1-[4-(2-cyclopropoxyphenyl)pyridin-3-yl]cyclopropoxy}methyl)phenyl]butyl}-2,3,4,5,6-pentahydroxy-N-methylhexanamide], `CN(CC(=O)O)CC(=O)N(CCCCc1cc(Cl)c(CNC2(c3cnccc3-c3ccccc3OC3CC3)CC2)cc1Cl)C[C@H](O)[C@@H](O)[C@H](O)[C@H](O)CO` [Compound I-200, 2-({[(4-{2,5-dichloro-4-[({1-[4-(2-cyclopropoxyphenyl)pyridin-3-yl]cyclopropyl}amino)methyl]phenyl}butyl)[(2S,3R,4R,5R)-2,3,4,5,6-pentahydroxyhexyl]carbamoyl]methyl}(methyl)amino) acetic acid] is higher in EC50: under 100 nM for the first, 1260 to 10000 nM for the second.

First: CN(CCCCNC(=O)NCCCCN(C)S(=O)(=O)c1ccc(Cl)c(COC2(c3cnccc3-c3ccccc3OC3CC3)CC2)c1)S(=O)(=O)c1ccc(Cl)c(COC2(c3cnccc3-c3ccccc3OC3CC3)CC2)c1 [Compound I-767, N,N′-((carbonylbis(azanediyl))bis(butane-4,1-diyl))bis(4-chloro-3-((1-(4-(2-cyclopropoxyphenyl)pyridin-3-yl)cyclopropoxy)methyl)-N-methylbenzenesulfonamide)]
Second: CC(=O)NCCCCN(C)S(=O)(=O)c1ccc(Cl)c(COC2(c3cnccc3-c3ccccc3OC3CC3)CC2)c1 [Compound I-766, N-(4-((4-chloro-3-((1-(4-(2-cyclopropoxyphenyl)pyridin-3-yl)cyclopropoxy)methyl)-N-methylphenyl)sulfonamido)butyl)acetamide]
The EC50 of the first is higher: 126 to 1000 nM for the first, under 100 nM for the second.

`Cc1ccc(SCCCN(CCS(C)(=O)=O)C[C@H](O)[C@@H](O)[C@H](O)[C@H](O)CO)cc1COC1(c2cnccc2-c2ccccc2OC2CC2)CC1` [Compound I-614, (2R,3R,4R,5S)-6-[(3-{[3-({1-[4-(2-cyclopropoxyphenyl)pyridin-3-yl]cyclopropoxy}methyl)-4-methylphenyl]sulfanyl}propyl)(2-methanesulfonylethyl)amino]hexane-1,2,3,4,5-pentol] and `C[C@H](CCCCN)c1ccc(Cl)c(COC2(c3cnccc3-c3ccccc3OC3CC3)CC2)c1` (single isomer, unassigned) [Compound I-245] fall in the same range of EC50: 126 to 1000 nM for the first, 126 to 1000 nM for the second.

`CCC(OCc1cc(Cl)ccc1Cl)c1cnccc1-c1ccccc1OC1CC1` (stereo not drawn) [Compound I-779, 4-(2-cyclopropoxyphenyl)-3-(1-((2,5-dichlorobenzyl)oxy)propyl)pyridine] was tested, and the EC50 was 1260 to 10000 nM.
